pIC50: −log10 of the molar value.
How the values were obtained:
[1] = Inhibition of IL-6/JAK/STAT3 signalling pathway in HEK-blue IL-6 cells incubated for 16 hrs by SEAP reporter gene based QUANTI- blue assay; assay type: cell-based; details: Homo sapiens, HEK-Blue IL-6, 16 h
[2] = Cytotoxicity against HEK-Blue IL-6 cells; assay type: toxicity, cell-based; details: human
[3] = tested on: ECa-109 cell line; assay: Antitumor activity against human EC109 cells assessed as reduction in cell viability incubated for 72 hrs by MTT assay; assay type: functional, cell-based; details: ECa-109, 72 h
[4] = tested on: HepG2; assay: Antitumor activity against human HepG2 cells assessed as reduction in cell viability incubated for 72 hrs by MTT assay; assay type: functional, cell-based; details: HepG2, 72 h
[5] = Toxicity in BALB/c athymic nude mouse xenografted with human HepG2 cells assessed as decrease in body weight at 60 mg/kg, po administered daily for 24 days; assay type: organism-based; details: in vivo, 576 h, time 24 day
[6] = tested on: HepG2; assay: Antitumor activity against human HepG2 cells xenografted in BALB/c athymic nude mouse assessed as tumor growth inhibition at 60 mg/kg, po administered daily for 24 days relative to control; assay type: functional; details: HepG2, 576 h, time 24 day, read-out: TGI

pIC50 [1] | pIC50 [4] | Compound | pIC50 [2] | pIC50 [3] | Activity [5] | inhibition in vivo at 60 mg/kg [6]
< 5.00 |  | CCCn1c(-c2ccc(C)nc2)nc2cc3nc(-c4ccc(C)nc4)n(CCC)c3cc21 | < 5.00 |  |  | 
5.70 | 5.21 | CCCn1c(-c2cccc(C)c2)nc2cc3nc(-c4cccc(C)c4)n(CCC)c3cc21 | < 5.00 | < 4.70 |  | 
< 5.00 |  | CCCn1c(-c2cc(OC)cc(OC)c2)nc2cc3nc(-c4cc(OC)cc(OC)c4)n(CCC)c3cc21 | < 5.00 |  |  | 
< 5.00 |  | CCCn1c(-c2cccc(Br)c2)nc2cc3nc(-c4cccc(Br)c4)n(CCC)c3cc21 | < 5.00 |  |  | 
4.99 |  | CCCn1c(-c2cccc(O)c2)nc2cc3nc(-c4cccc(O)c4)n(CCC)c3cc21 | < 5.00 |  |  | 
< 5.00 |  | CCCn1c(-c2ccc(C(F)(F)F)cc2)nc2cc3nc(-c4ccc(C(F)(F)F)cc4)n(CCC)c3cc21 | < 5.00 |  |  | 
< 5.00 |  | CCCn1c(-c2cncnc2)nc2cc3nc(-c4cncnc4)n(CCC)c3cc21 | < 5.00 |  |  | 
< 5.00 |  | CCCn1c(C2CCOC2)nc2cc3nc(C4CCOC4)n(CCC)c3cc21 (stereo unspecified) | < 5.00 |  |  | 
< 5.00 |  | CCCn1c(-c2scc3ccccc23)nc2cc3nc(-c4scc5ccccc45)n(CCC)c3cc21 | < 5.00 |  |  | 
< 5.00 |  | CCCn1c(-c2cc(C(C)(C)C)cc(C(C)(C)C)c2)nc2cc3nc(-c4cc(C(C)(C)C)cc(C(C)(C)C)c4)n(CCC)c3cc21 | < 5.00 |  |  | 
< 5.00 |  | CCCn1c(-c2cccc(OC)c2)nc2cc3nc(-c4cccc(OC)c4)n(C4CCN(C)CC4)c3cc21 | < 5.00 |  |  | 
< 5.00 |  | CCCn1c(-c2cc(OC)c(OC)c(OC)c2)nc2cc3nc(-c4cc(OC)c(OC)c(OC)c4)n(CCC)c3cc21 | < 5.00 |  |  | 
< 5.00 |  | CCCn1c(C2CCC2)nc2cc3nc(C4CCC4)n(CCC)c3cc21 | < 5.00 |  |  | 
5.91 | < 4.70 | CCCn1c(-c2cccc(C(F)(F)F)c2)nc2cc3nc(-c4cccc(C(F)(F)F)c4)n(CCC)c3cc21 | < 5.00 | < 4.70 |  | 
5.11 |  | CCCCn1c(-c2cccc(F)c2)nc2cc3nc(-c4cccc(F)c4)n(CCCC)c3cc21 | < 5.00 |  |  | 
< 5.00 |  | CCCn1c(-c2ccccc2)nc2cc3nc(-c4ccccc4)n(CCN(C)C)c3cc21 | < 5.00 |  |  | 
< 5.00 |  | CCn1c(-c2cccc(F)c2)nc2cc3nc(-c4cccc(F)c4)n(CC)c3cc21 | < 5.00 |  |  | 
5.09 |  | CCCn1c(C2CCCCC2)nc2cc3nc(C4CCCCC4)n(CCC)c3cc21 | < 5.00 |  |  | 
< 5.00 |  | CCCn1c(C2CCOCC2)nc2cc3nc(C4CCOCC4)n(CCC)c3cc21 | < 5.00 |  |  | 
5.02 |  | CCCn1c(-c2cccc3ccccc23)nc2cc3nc(-c4cccc5ccccc45)n(CCC)c3cc21 | < 5.00 |  |  | 
5.05 |  | CCCn1c(-c2cccc(C(=O)OC)c2)nc2cc3nc(-c4cccc(C(=O)OC)c4)n(CCC)c3cc21 | < 5.00 |  |  | 

pIC50 [1] | pIC50 [4] | Compound | pIC50 [2] | pIC50 [3] | Activity [5] | inhibition in vivo at 60 mg/kg [6]
< 5.00 |  | CCCn1c(-c2ccc(Cl)c(C(F)(F)F)c2)nc2cc3nc(-c4ccc(Cl)c(C(F)(F)F)c4)n(CCC)c3cc21 | < 5.00 |  |  | 
< 5.00 |  | CCCn1c(-c2ccc(C)o2)nc2cc3nc(-c4ccc(C)o4)n(CCC)c3cc21 | < 5.00 |  |  | 
< 5.00 |  | CCCn1c(-c2ccc3cc[nH]c3c2)nc2cc3nc(-c4ccc5cc[nH]c5c4)n(CCC)c3cc21 | < 5.00 |  |  | 
< 5.00 |  | CC(C)Cn1c(-c2cccc(F)c2)nc2cc3nc(-c4cccc(F)c4)n(CC(C)C)c3cc21 | < 5.00 |  |  | 
< 5.00 |  | CCCn1c(-c2ccc[nH]2)nc2cc3nc(-c4ccc[nH]4)n(CCC)c3cc21 | < 5.00 |  |  | 
5.17 |  | CCCn1c(-c2cccc(C#N)c2)nc2cc3nc(-c4cccc(C#N)c4)n(CCC)c3cc21 | < 5.00 |  |  | 
< 5.00 |  | CCCn1c(-c2ccc(F)cc2)nc2cc3nc(-c4ccc(F)cc4)n(CCC)c3cc21 | < 5.00 |  |  | 
< 5.00 |  | CCCn1c(-c2nccs2)nc2cc3nc(-c4nccs4)n(CCC)c3cc21 | < 5.00 |  |  | 
5.14 | 4.88 | CCCn1c(-c2ccccc2)nc2cc3nc(-c4ccccc4)n(CCC)c3cc21 | < 5.00 | 4.90 |  | 
4.99 |  | CCCn1c(-c2ccccc2F)nc2cc3nc(-c4ccccc4F)n(CCC)c3cc21 | < 5.00 |  |  | 
< 5.00 |  | CCCn1c(-c2cccc(OC)c2)nc2cc3nc(-c4cccc(OC)c4)n(CCN(C)C)c3cc21 | < 5.00 |  |  | 
< 5.00 |  | Fc1cccc(-c2nc3cc4nc(-c5cccc(F)c5)n(C5CC5)c4cc3n2C2CC2)c1 | < 5.00 |  |  | 
 |  | CNC(=O)c1cc(Oc2ccc(NC(=O)Nc3ccc(Cl)c(C(F)(F)F)c3)cc2)ccn1 [SORAFENIB] |  |  | Toxic | 88.4%
< 5.00 |  | CCCn1c(-c2ccc(F)c(C(F)(F)F)c2)nc2cc3nc(-c4ccc(F)c(C(F)(F)F)c4)n(CCC)c3cc21 | < 5.00 |  |  | 
< 5.00 |  | CCCn1c(-c2cc(F)cc(F)c2)nc2cc3nc(-c4cc(F)cc(F)c4)n(CCC)c3cc21 | < 5.00 |  |  | 
< 5.00 |  | CCCn1c(-c2cccn2C)nc2cc3nc(-c4cccn4C)n(CCC)c3cc21 | < 5.00 |  |  | 
5.82 | < 4.70 | CCCn1c(-c2cccc(F)c2)nc2cc3nc(-c4cccc(F)c4)n(CCC)c3cc21 | < 5.00 | < 4.70 |  | 
< 5.00 |  | CCCn1c(C2CC2)nc2cc3nc(C4CC4)n(CCC)c3cc21 | < 5.00 |  |  | 
5.54 | 4.75 | CCCn1c(-c2cccc(Cl)c2)nc2cc3nc(-c4cccc(Cl)c4)n(CCC)c3cc21 | < 5.00 | < 4.70 |  | 
< 5.00 |  | CCCn1c(-c2cccc(OCC)c2)nc2cc3nc(-c4cccc(OCC)c4)n(CCC)c3cc21 | < 5.00 |  |  | 

Compound | pIC50 [1] | pIC50 [4] | pIC50 [2] | pIC50 [3] | Activity [5] | inhibition in vivo at 60 mg/kg [6]
C[C@H]1COC2=C1C(=O)C(=O)c1c2ccc2c1CCCC2(C)C [CRYPTOTANSHINONE] | 5.18 | 4.53 | < 5.00 | 5.30 |  | 

Reference: ChEMBL document CHEMBL5143695, “Benzobis(imidazole) derivatives as STAT3 signal inhibitors with antitumor activity” (Bioorg Med Chem, 2022)
